Measurements reported in patent publication US11832638B2, “N-acyl derivatives of gamma amino-butyric acid and beta alanine as food flavouring compounds” (GIVAUDAN SA, priority 2012, dated 2023).

Experiments:
[1] = Tasting in soy based product (salt reduced kikoman soy sauce)
Procedure: (§1) The following formulations were prepared and tasted by trained panelists.
(§2) Salt level pure product between 5-40%
(§3) Salt level in application 0.3-1.0%
C18:2-gaba-(0.5 ppm) was added to a 1% diluted salt reduced kikoman soy sauce (9% salt).
C18:2-gaba-(0.5 ppm) was added to pure salt reduced kikoman soy sauce (9% salt).

[2] = Tasting in fish based product (fish sauce)
Procedure: as §1, §2, §3
C18:2-gaba-(0.5 ppm) was added to a 1% diluted fish sauce sauce (0.27% salt).
C18:2-gaba-(0.5 ppm) was added to pure fish sauce (27% salt).

[3] = Tasting in butter (Blueband halvarine); conditions: 1 ppm in Blueband halvarine 39% fat 0.35% salt
Procedure: as §1
Blueband “halvarine” 39% fat 0.35% salt
C18:2-gaba added at 1 ppm.

[4] = Tasting in low fat salad dressing; conditions: 0.5 PPM in low fat salad dressing (13.6% fat)
Procedure: as §1
low fat salad dressing (13.6% Fat)

Tasting in cheese sauce = conditions: 0.5 PPM in cheese sauce 5% fat 1.6% salt
Procedure: as §1
Cheese sauce: 5% fat 1.6% salt

[5] = Tasting in fried potato snack product with cheese seasoning; conditions: fried potato base 35% fat
Procedure: Snack Product A snack product consisting of a fried potato base, containing 35% fat and flavored with cheese seasoning containing salt, MSG, dairy, organic acids, sugars, and a flavour formulation. The following compounds were added to the snack product at the indicated levels and the tasting results arc reported: […]

[6] = Tasting in air expanded base with cheese seasoning; conditions: air expanded base 3% fat
Procedure: Air Expanded Base An air expanded base (Rice, wheat, Tapioca, potato, salt, sugar, modified starch), containing 3% fat and flavored with cheese seasoning containing salt, MSG, dairy, organic acids, sugars and flavor. The following compounds were added to the base at the indicated levels and the tasting results are reported: […]

[7] = UHT milk cream flavoured, non sweetened, different fat levels; conditions: 2 ppm, cream flavour 0.03%
Procedure: The following tests were carried out on dairy products processed by fermentation, pasteurization or UHT. The products contain fat, protein and calcium.
UHT Milk Cream Flavoured, Non Sweetened and Different Fat Levels
In a UHT milk containing 0% 1.5% and 3% fat, flavoured with a proprietary cream flavour dosed at 0.03%
C18:2-gaba was added at 2 ppm.
Samples were evaluated by expert tasters.
Tasters were asked to describe the samples focusing on authentic taste , mouthfeel, fullness, salivation, sweetness, juiciness, richness, long lastingness and fattiness.

[8] = UHT sweetened banana flavoured milk, different fat levels; conditions: banana flavour 0.04%
Procedure: UHT Sweetened Banana Flavoured Milk, With Different Fat Levels
In a UHT milk with 0% and 3% fat sweetened with 4% sucrose by weight, flavoured with proprietary banana flavour dosed at 0.04%. C18:2 gaba was added at 0.25 ppm, 0.5 ppm and 1 ppm.
Samples were evaluated by expert tasters. Tasters were asked to describe the samples focusing on authentic taste, mouthfeel, fullness, salivation, sweetness, juiciness, richness, long lastingness and fattiness.

[9] = Mango flavoured still beverage with different levels of juice; conditions: 1 ppm, 8% sucrose, 0.1% citric acid, mango flavor 0.05%
Procedure: Mango Flavoured Still Beverage Containing Different Levels Of Juice.
In a Mango flavoured still beverage, sweetened with 8% sucrose and containing 0.1% citric acid and 1%, 4% and 6% clear mango juice flavoured with a proprietary Mango flavour @ 0.05%, C18:2-gaba was added, as such.
All samples were evaluated by expert tasters. Tasters were asked to describe the samples focusing on authentic taste, juicy mouthfeel, enhancement, richness, juiciness, long lastingness, salivation, sweetness.
In a Mango flavoured still beverage, sweetened with 8% sucrose & containing 0.1% citric acid and 1% clear mango juice flavoured with proprietary Mango flavour @ 0.05%, C18:2-gaba was added, as such.
Base is water, 8% sucrose, 0.1% citric acid, 1% clear mango juice (very low juice %) , flavoured with Mango flavor, dosed at 0.05%
In a Mango flavoured still beverage, sweetened with 8% sucrose & containing 0.1% citric acid and 4% clear mango juice flavoured with Mango flavour @ 0.05% , C18:2-gaba and C18:2-Pro were added, as such (separate) and in combination.
Base is water, 8% sucrose, 0.1% citric acid, 4% clear mango juice (30% reduced juice), flavoured with Mango flavor, dosed at 0.05%
A Mango-flavoured still beverage, sweetened with 8% sucrose & containing 0.1% citric acid and 6% clear mango juice flavoured with Mango flavour @ 0.05%, C18:2-gaba
Base is water, 8% sucrose, 0.1% citric acid, 6% clear mango juice (full juice), flavoured with Mango flavor, dosed at 0.05%.

[10] = Test on Baileys cream liqueur; conditions: 1 ppm
Procedure: Test on Baileys Cream Liqueur:
In Baileys cream liqueur (Market Product) C18:2-gaba was added at 1 ppm.
Samples were evaluated by expert tasters. Tasters were asked to describe the samples focusing on authentic taste, alcohol impact, mouthfeel, fullness, salivation, sweetness, bitterness, richness, long lastingness and fattiness.
Base is Baileys cream liqueur

Test on Eru Prestige = conditions: 0.5 ppm
[11] = Comparison in a strawberry drink; conditions: 2 ppm, 7% sucrose, 0.1% citric acid, strawberry flavour 0.015%
Text: Comparison in a Strawberry Drink
Base is 7% sucrose, 0.1% citric acid, and a proprietary strawberry flavour @0.015%

Test in vanilla milk = conditions: 2 ppm, milk 0.15% fat, 4% sucrose, Vaniline flavour 10 ppm + vanilla ext. 0.03%
Text: Base: Milk 0.15% fat, sweetened with 4% sucrose by weight, flavoured with proprietary
Vaniline flavour @ 10 ppm+Vanilla ext. @ 0.03%

[12] = Test in chocolate flavoured drink; conditions: 2 ppm, water, 4% sucrose, chocolate flavour 0.03%
Text: Test in Chocolate Flavoured Drink:
Base: Water, 4% sucrose, proprietary chocolate flavour at 0.03%

[13] = Test in pear flavoured drink; conditions: 1 ppm, water, 7% sugar, 0.1% citric acid, pear flavour 0.025%
Text: Test in Pear Flavoured Drink:
Base: water, 7% sugar, 0.1% citric acid, proprietary pear flavour at 0.025%

CCCCC/C=C\C/C=C\CCCCCCCC(=O)NCCCC(=O)O [C18:2-gaba]
tasting result (trained panelists) ([1]; 0.5 ppm in 1% diluted salt reduced kikoman soy sauce (9% salt)): stronger, more umami, long lasting, richer | tasting result (trained panelists) ([1]; 0.5 ppm in pure salt reduced kikoman soy sauce (9% salt)): strong in body and mouthfeel,and more salty | tasting result (trained panelists) ([2]; 0.5 ppm in 1% diluted fish sauce (0.27% salt)): stronger in umami, longer lasting and richer | tasting result (trained panelists) ([2]; 0.5 ppm in pure fish sauce (27% salt)): strong in body and mouthfeel, more salty, richer with more rounded fish notes | tasting result (trained panelists) [3]: more authentic butter taste, with more mouthfeel | tasting result (trained panelists) [4]: better mouthfeel that was impressively creamy | tasting result (trained panelists) (Tasting in cheese sauce): Full, Salty, cheese bite expanding | tasting result ([5]; 0.5 ppm): increased dairy, cheesy | tasting result ([5]; 1 ppm): Fatty full, cheesy, cheese crust, long lasting | tasting result ([6]; 0.5 ppm): Increased dairy, cheese | tasting result ([6]; 1 ppm): Fatty full, cheesy, cheese crust, long lasting, cover base | description by expert tasters ([7]; UHT milk 0% fat): Very creamy, milky, long lasting | description by expert tasters ([7]; UHT milk 1.5% fat): very creamy, milky, long lasting, salivating | description by expert tasters ([7]; UHT milk 3.0% fat): very creamy, milky, long lasting, taste like whipped cream | description by expert tasters ([8]; 0.25 ppm, UHT milk 0% fat): fuller banana, more authentic, more sweet | description by expert tasters ([8]; 0.25 ppm, UHT milk 3% fat): more authentic, less estery and more round | description by expert tasters ([8]; 0.5 ppm, UHT milk 0% fat): fuller banana, authentic, creamy and sweet | description by expert tasters ([8]; 0.5 ppm, UHT milk 3% fat): creamy banana | description by expert tasters ([8]; 1 ppm, UHT milk 0% fat): creamy, creamy banana, sweet aftertaste | description by expert tasters ([8]; 1 ppm, UHT milk 3% fat): creamy long lasting and more authentic and more impact | description by expert tasters ([9]; 1% clear mango juice): fatty skin-like, very juicy, authentic mango, much more mouthfeel, long lasting mango taste, mouthfeel is close to the full juice product | description by expert tasters ([9]; 4% clear mango juice): fatty skin-like, very juicy, authentic mango, long lasting mango taste, more mouthfeel than the full juice product | description by expert tasters ([9]; 6% clear mango juice (full juice)): fatty skin-like, very thick juicy, authentic mango, long lasting mango taste, rich | description by expert tasters [10]: strongly enhanced alcohol effect, more cocoa, very creamy and long lasting aftertaste | taste description (Test on Eru Prestige): full salty, much more cheese bite, umami, lingering, long lasting | taste description [11]: fatty mouthfeel, creamy strawberry, fruity and juicy | taste description (Test in vanilla milk): fatty, long lasting authentic vanilla, vanilla bean taste is enhanced | taste description [12]: full, sweeter, more vanillic, milk chocolate is enhanced, very long lasting | taste description [13]: long lasting, juicy and fatty skin like very authentic, like eating the fruit instead of drinking a drink
